Assays:
ULK2 = biological target: T1, ULK2 (Homo sapiens, UniProt Q8IYT8); assay: Kinase selectivity screen ULK2; conditions: read-out: % inhibition of ULK2
T1 sequence (Q8IYT8 1-1036): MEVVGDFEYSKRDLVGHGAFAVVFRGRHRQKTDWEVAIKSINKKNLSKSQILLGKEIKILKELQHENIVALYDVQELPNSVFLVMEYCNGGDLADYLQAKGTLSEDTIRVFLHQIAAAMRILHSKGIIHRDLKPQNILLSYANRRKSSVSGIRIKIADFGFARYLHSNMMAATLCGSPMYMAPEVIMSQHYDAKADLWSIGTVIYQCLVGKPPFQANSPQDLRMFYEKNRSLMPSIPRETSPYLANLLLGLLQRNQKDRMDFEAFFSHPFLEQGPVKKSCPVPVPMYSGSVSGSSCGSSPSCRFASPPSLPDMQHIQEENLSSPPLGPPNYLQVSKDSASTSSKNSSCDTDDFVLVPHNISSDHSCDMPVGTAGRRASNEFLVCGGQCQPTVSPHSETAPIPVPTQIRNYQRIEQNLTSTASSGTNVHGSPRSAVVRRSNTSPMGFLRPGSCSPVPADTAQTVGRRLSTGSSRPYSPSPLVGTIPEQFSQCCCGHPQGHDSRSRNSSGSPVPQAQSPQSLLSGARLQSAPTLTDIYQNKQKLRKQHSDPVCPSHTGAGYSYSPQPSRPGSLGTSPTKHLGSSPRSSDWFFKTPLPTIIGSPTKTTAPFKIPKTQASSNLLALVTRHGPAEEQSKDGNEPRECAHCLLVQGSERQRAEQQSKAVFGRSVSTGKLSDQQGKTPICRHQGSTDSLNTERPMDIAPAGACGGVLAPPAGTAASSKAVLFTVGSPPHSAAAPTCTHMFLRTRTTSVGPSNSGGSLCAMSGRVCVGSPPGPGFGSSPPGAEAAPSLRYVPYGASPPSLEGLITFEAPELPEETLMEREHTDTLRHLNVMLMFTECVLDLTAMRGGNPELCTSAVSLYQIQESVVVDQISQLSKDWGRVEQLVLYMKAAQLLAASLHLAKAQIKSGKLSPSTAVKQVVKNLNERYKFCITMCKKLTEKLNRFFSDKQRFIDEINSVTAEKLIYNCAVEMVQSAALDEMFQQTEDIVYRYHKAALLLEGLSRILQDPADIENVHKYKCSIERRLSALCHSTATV

KIT = KIT (Homo sapiens, UniProt P10721); assay: Kinase selectivity screen KIT; conditions: read-out: % inhibition of KIT
Chain of KIT (P10721 26-976, species assumed): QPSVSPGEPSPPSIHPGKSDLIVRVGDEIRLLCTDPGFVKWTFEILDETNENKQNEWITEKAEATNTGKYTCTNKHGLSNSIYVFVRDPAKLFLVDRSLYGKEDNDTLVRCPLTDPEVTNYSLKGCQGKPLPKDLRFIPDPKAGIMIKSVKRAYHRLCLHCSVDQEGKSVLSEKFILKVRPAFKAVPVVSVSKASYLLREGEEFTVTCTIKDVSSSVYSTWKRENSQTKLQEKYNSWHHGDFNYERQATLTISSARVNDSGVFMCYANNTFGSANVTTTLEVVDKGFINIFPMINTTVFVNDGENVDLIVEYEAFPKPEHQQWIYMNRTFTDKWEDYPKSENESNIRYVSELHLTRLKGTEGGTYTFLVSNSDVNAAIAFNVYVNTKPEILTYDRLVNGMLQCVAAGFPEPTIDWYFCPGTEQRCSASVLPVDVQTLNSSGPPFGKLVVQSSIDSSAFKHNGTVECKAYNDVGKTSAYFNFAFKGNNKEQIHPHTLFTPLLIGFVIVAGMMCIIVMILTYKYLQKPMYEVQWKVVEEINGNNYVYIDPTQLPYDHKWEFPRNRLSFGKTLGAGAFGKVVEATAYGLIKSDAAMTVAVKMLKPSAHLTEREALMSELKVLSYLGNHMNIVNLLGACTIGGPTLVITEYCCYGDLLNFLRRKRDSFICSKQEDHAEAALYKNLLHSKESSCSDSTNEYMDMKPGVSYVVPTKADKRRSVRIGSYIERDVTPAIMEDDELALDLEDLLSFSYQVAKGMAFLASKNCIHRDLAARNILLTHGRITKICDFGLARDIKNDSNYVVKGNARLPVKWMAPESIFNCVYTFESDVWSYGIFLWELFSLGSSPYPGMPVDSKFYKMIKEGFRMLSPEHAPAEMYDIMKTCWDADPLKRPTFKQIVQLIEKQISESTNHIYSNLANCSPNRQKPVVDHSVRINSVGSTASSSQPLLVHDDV

| Structure (SMILES) | inhibition at 1 µM (ULK2) [%] | inhibition at 1 µM (KIT) [%] |
| --- | --- | --- |
| CN(C)CCCNC(=O)c1nc2c(N3CCc4cc(F)ccc43)ncnc2s1 [Example 64, N-[3-(dimethylamino)propyl]-7-(5-fluoroindolin-1-yl)thiazolo[5,4-d]pyrimidine-2-carboxamide] | 81 | 0 |
| CC(C)Oc1cc(F)ccc1Nc1ncnc2sc(C(=O)NCC3CCNCC3)nc12 [Example 10, 7-(4-fluoro-2-isopropoxy-anilino)-N-(4-piperidylmethyl)thiazolo[5,4-d]pyrimidine-2-carboxamide] | 0 | 0 |
| O=C(NCC1CCNCC1)c1nc2c(N3CCc4cc(F)ccc43)ncnc2s1 [Example 58, 7-(5-fluoroindolin-1-yl)-N-(4-piperidylmethyl)thiazolo[5,4-d]pyrimidine-2-carboxamide] | 21 | 7 |

Source: patent US10669284B2, “Fused thiazolopyrimidine derivatives as MNKS inhibitors” (LIFEARC, priority 2015, dated 2020)
